“Also recorded” adds a separate entry of the source.
System: folate receptor positive KB tumor xenografts
Assay: Whole body imaging and tissue biodistribution, KB tumor xenografts
Format: in vivo, mice
Details: for tumor uptake: 0.3 nmol dose i.v.; for non-specific uptake: 60 and 90 nmol doses i.v.
Description: (§1) Seven-week-old female nu/nu mice were inoculated subcutaneously with KB cells (1.0×10^6/mouse in folate free RPM11640 medium) on the shoulder. […] […] Whole body imaging (intact tumor) experiments were then performed using a Caliper IVIS Lumina II Imaging Station with Living Image 4.0 software (PerkinElmer Inc, MA). Settings for imaging:—lamp level: medium; excitation: 745 nm; emission: 830 nm; epi illumination; binning: 4 (M), FOV=12.5; f-stop=2; acquisition time=1 s.
Following whole body imaging, animals were dissected and selected tissues (heart, lung, liver, spleen, kidneys, stomach, small intestine, large intestine, muscle, skin, tumor) were analyzed for fluorescence activity using IVIS imager as before. Settings for imaging: lamp level: medium; excitation: 745 nm; emission: 830 nm; epi illumination; binning: 4 (M), FOV=12.5; f-stop=2; acquisition time=1 s.
as §1, with “shoulder. Growth of the tumors was measured in perpendicular directions every 2 days using a caliper (body weights were monitored on the same schedule), and the volumes of the tumors were calculated as 0.5×L×W^2 (L=longest axis and W=axis perpendicular to L in millimeters).” for “shoulder.”, “ICG (830 nm);” for “830 nm;”
Following whole body imaging, animals were dissected and selected tissues (heart, lung, liver, spleen, kidneys, stomach, small intestine, large intestine, muscle, skin, and tumor) were analyzed for fluorescence activity using IVIS imager as before. Settings for imaging:—lamp level: medium; excitation: 745 nm; emission:ICG (830 nm); epi illumination; binning: 4 (M), FOV=12.5; f-stop=2; acquisition time=1 s.
Five-week-old female nu/nu mice were inoculated subcutaneously with KB cells (1.0×10^6/mouse in RPMI medium) on their shoulders. Growth of the tumors was measured in two perpendicular directions every 2 days using a caliper (body weights were monitored on the same schedule), and the volumes of the tumors were calculated as 0.5×L×W^2 (L) longest axis and W) axis perpendicular to L in millimeters). Once tumors reached between 400 and 500 mm3 in volume, animals were treated with folate receptor-targeted NIR dye conjugate (10 nmol) in phosphate buffered saline (100 μL). […]
Animal imaging experiments were performed using a Caliper Ivis Lumina II Imaging Station with Living Image 4.0 software. Settings for imaging Alexa Fluor 647 and DyLight 680 conjugates: lamp level: high; excitation: 605; emission: Cy5.5; epi illumination; binning: (M) 4; FOV=7.5; f-stop=4; acquisition time=1 s. Settings for imaging DyLight 750 and IR800CW conjugates: lamp level: high; excitation: 745; emission: ICG; epi illumination; binning: (M) 4, FOV=12.5; f-stop=4; acquisition time=1 s.
Seven-week-old female nu/nu mice were inoculated subcutaneously with KB cells (1.0×10^6/mouse in folate free RPM11640 medium) on the shoulder. Growth of the tumors was measured in perpendicular directions every 2 days using a caliper (body weights were monitored on the same schedule), and the volumes of the tumors were calculated as 0.5×L×W^2 (L=longest axis and W=axis perpendicular to L in millimeters). Once tumors reached between 400 and 500 mm3 in volume, animals (5 mice/group) were intravenously injected with 10 nmol of OTL-0038 or OTL-0039 in phosphate buffered saline (100 μL). After 2.5 hours, animals were euthanized by CO2 asphyxiation. Whole body imaging (intact tumor) experiments were then performed using a Caliper IVIS Lumina II Imaging Station with Living Image 4.0 software (PerkinElmer Inc, MA). […]

[1] = 10 nmol i.v., 2 h, listed as OTL38
[2] = 10 nmol i.v., 2 h, listed as Pte-Tyr-S0456
[3] = 10 nmol tail vein, live imaging
[4] = dose escalation 0.3-90 nmol i.v.

SMILES: CC1(C)C(/C=C/C2=C(Oc3ccc(C[C@H](NC(=O)c4ccc(NCc5cnc6nc(N)[nH]c(=O)c6n5)cc4)C(=O)[O-])cc3)C(=C/C=C3\N(CCCCS(=O)(=O)[O-])c4ccc(S(=O)(=O)[O-])cc4C3(C)C)/CCC2)=[N+](CCCCS(=O)(=O)[O-])c2ccc(S(=O)(=O)[O-])cc21.[H+].[H+].[H+].[H+] [OTL-0038, Pte-Tyr-S0456]
- tumor uptake: lower uptake in folate receptor-positive tumors (weak fluorescence intensity)
- tumor uptake (listed as OTL38): lower uptake in FR-positive tumors (weak fluorescence intensity)
- whole body imaging, tissue biodistribution and tumor-to-tissue (2 nmol dose, 2 h post injection): excellent
- time in which nonspecific skin tissue uptake clears (10 nmol): ≤ 24 h
- tumor fluorescence intensity, direct comparison (10 nmol i.v., 2 h): brighter than the mice treated with the other conjugates
- tumor-to-tissue ratios (10 nmol i.v., 2 h): excellent tumor-to-tissue ratios except the skin
- whole body imaging: accumulation (10 nmol i.v., 2 h): accumulated predominantly in the folate receptor-positive tumors
- ex vivo tissue biodistribution [1]: highest fluorescence intensity was observed in FR-positive tumors with no accumulation in the other tissues except the kidneys and skin
- whole body imaging: accumulation [1]: accumulated predominantly in the FR positive KB tumors
- ex vivo tissue biodistribution [2]: accumulated predominantly in the folate receptor positive tumors with no substantial fluorescence activity in other organs except the kidneys
- tumor fluorescence intensity, direct comparison [2]: competitive, in terms of fluorescent brightness, to all folate-NIR conjugates
- whole body imaging: accumulation [2]: mainly accumulated in the folate receptor positive tumors and no fluorescence was observed in other tissues
- ex vivo tissue biodistribution (10 nmol i.v., 2.5 h): highest fluorescence intensity was observed in FR-positive tumors with no accumulation in the other tissues except the kidneys; also recorded: mainly accumulated in folate receptor positive tumor xenografts and kidneys
- tumor fluorescence intensity, direct comparison (10 nmol i.v., 2.5 h): brighter (higher); also recorded: beneficial aspects relative to folate-LS288, folate-IR800, and folate-ZW800 in tumor accumulated fluorescence intensity
- tumor-to-normal tissue fluorescence ratios (10 nmol i.v., 2.5 h): excellent tumor-to-normal tissue fluorescence ratios
- whole body imaging: accumulation (10 nmol i.v., 2.5 h): accumulated predominantly in the folate receptor positive tumors
- time point at which clearing from the skin starts [3]: 2 h
- time to saturate FR [3]: 2 to 4 h
- time to accumulate in FR positive tumor and kidneys (10 nmol tail vein, live imaging 15 min to 48 h): ≤ 1 h
- skin fluorescence (10 nmol, 24-48 hour time points): minimal fluorescence
- uptake in sliced (dissected) tumors (10 nmol, 2 h): accumulated homogeneously in all tumor cells
- fluorescence intensity in the skin (10 nmol, 24 h post injection, ImageJ): minimal
- fluorescence in tumor (10 nmol, 48 hour time point): remains high
- non-specific uptake: higher non-specific uptake
- non-specific uptake (listed as OTL38): higher non-specific uptake in healthy tissues
- highest dose to obtain best tumor-to-background ratio [4]: 30 nmol
- lowest dose to obtain good tumor-to-background ratio [4]: 1.0 nmol
- kidney uptake (dose range 0.3-10 nmol): higher kidney uptake
- tumor uptake and tumor-to-normal tissue ratio (dose range 1.0-30.0 nmol i.v.): tumor uptake and excellent tumor-to-normal tissue ratio
- kidney uptake (dose range 30-90 nmol): less kidney uptake (relative to tumor uptake)

Reference: patent publication US12133900B2, “Synthesis and composition of amino acid linking groups conjugated to compounds used for the targeted imaging of tumors” (Purdue Research Foundation, priority 2013, dated 2024)
